These results are taken from patent publication US7217724B2, “Indole, indazole, and benzazole derivative” (Dainippon Sumitomo Pharma Co., Ltd., priority 2002, dated 2007).

One test addresses T1, human β1-receptor (Homo sapiens, UniProt P08588).
T1 construct: THP-1 cell line, i.e., cells expressing both human β2- and β1-receptors; host or cells: THP-1 cells
The test is described as follows: Human β1-receptor stimulation test (cAMP production in THP-1 cells). The class given is cell-based. The text has this:
(§1) Human β3, β2 and β1-receptor stimulation test
(§2) Human β3-receptor-stimulating activity was studied using SK-N-MC cell line, i.e., cells permanently expressing human β3- and human β1-receptors (SK-N-MC cells, purchased from Dainippon Pharmaceutical Co., Ltd.), and human β2- and β1-receptor-stimulating activities were studied using THP-1 cell line, i.e., cells expressing both human β2- and β1-receptors (THP-1 cells, purchased Dainippon Pharmaceutical Co., Ltd.).
(§3) The β3-receptor stimulating activity of a test compound (10^−9 to 10^−5 M) was studied using as an index cyclic AMP (hereinafter, referred to as cAMP) producing activity of SK-N-MC cells at almost confluent in the presence of a β1-receptor inhibitor ((±)-2-hydroxy-5-(2-((2-hydroxy-3-(4-(1-methyl-4-(trifluoromethyl)-1H-imidazol-2-yl)phenoxy)propyl)-amino)ethoxy)benzamide methanesulfonate, CGP-20712A (Sigma-Aldrich), 10^−6M), wherein said SK-N-MC cells were seeded into a 96-well plate at a cell density of 2×10^4 cells/well and had been cultured for 3 days. […] The cAMP production in the cells was measured by ELISA method. […]

The next test deals with β1-adrenoceptor. The test is described as follows: Autonomic beat of the excised right atrium specimen (positive chronotropic action, Magnus method). Also on record: species or system Hartley guinea pig. As to conditions: method of Experiment 2. On the procedure: Effect of a medicament on autonomic beat of the excised right atrium specimen based on β1-adrenoceptor-stimulating activity (study on positive chronotropic action)
The heart of Hartley guinea pig was excised, and a right atrium specimen was prepared therefrom and the experiment was carried out thereon according to Magnus method. The specimen was hung at 34° C. in Krebs-Henseleit solution to which a mixed gas of 95% oxygen and 5% carbon dioxide was aerated, and loaded so that the maximum resting tension became about 0.5 g. The autonomic beat of the right atrium was detected through a pressure transducer, and the tension and the beat were continuously recorded onto a linear recorder. A medicament was cumulatively added every time the beat became plateau. […]
In order to show the divergence between β3-stimulating activity/β1-stimulating activity in the experimental results, the EC50 value of positive chronotropic action of the test compound of Examples obtained in Experiment 2 was divided by the EC50 value of human β3-stimulating activity of said compound obtained in Experiment 1, which is the main activity in Experiment 1. The results are expressed by relative values, which are calculated by counting the value of the reference compound (AJ 9677) as 1.

The next test concerns the target T2, human β3-receptor (Homo sapiens, UniProt P13945).
T2 construct: SK-N-MC cell line, i.e., cells permanently expressing human β3- and human β1-receptors; host or cells: SK-N-MC cells
The experiment in a line: Human β3-receptor stimulation test (cAMP production in SK-N-MC cells). The test is classed as cell-based. As to conditions: in the presence of β1-receptor inhibitor CGP-20712A 10^−6 M, read-out: EC50 value of β3-stimulating activity.
Description: as §1, §2, §3

In the next test the target is T3, human β2-receptor (Homo sapiens, UniProt P07550).
T3 construct: THP-1 cell line, i.e., cells expressing both human β2- and β1-receptors; host or cells: THP-1 cells
The experiment in a line: Human β2-receptor stimulation test (cAMP production in THP-1 cells). The class given is cell-based. As to conditions: with CGP-20712A, activity not observed up to a maximum concentration, read-out: β2-stimulating activity.
Description: as §1, §2, §3

Each structure is given as a SMILES string. Where a name gives a salt, the structure may show the parent alone. Some results are limits rather than exact numbers.

T1 sequence (P08588 whole entry): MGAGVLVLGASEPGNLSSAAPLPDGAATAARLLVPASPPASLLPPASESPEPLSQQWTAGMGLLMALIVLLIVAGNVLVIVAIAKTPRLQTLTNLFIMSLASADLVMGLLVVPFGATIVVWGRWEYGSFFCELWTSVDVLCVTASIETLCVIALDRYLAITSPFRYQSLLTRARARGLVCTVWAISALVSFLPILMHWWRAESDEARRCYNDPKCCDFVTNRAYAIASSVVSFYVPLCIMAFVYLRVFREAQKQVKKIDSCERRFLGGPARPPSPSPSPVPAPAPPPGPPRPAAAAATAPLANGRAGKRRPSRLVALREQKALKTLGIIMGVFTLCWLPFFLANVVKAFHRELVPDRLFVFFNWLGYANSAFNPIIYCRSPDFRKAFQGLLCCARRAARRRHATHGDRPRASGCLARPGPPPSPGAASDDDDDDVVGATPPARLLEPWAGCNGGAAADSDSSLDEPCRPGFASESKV
T3 sequence (P07550 whole entry): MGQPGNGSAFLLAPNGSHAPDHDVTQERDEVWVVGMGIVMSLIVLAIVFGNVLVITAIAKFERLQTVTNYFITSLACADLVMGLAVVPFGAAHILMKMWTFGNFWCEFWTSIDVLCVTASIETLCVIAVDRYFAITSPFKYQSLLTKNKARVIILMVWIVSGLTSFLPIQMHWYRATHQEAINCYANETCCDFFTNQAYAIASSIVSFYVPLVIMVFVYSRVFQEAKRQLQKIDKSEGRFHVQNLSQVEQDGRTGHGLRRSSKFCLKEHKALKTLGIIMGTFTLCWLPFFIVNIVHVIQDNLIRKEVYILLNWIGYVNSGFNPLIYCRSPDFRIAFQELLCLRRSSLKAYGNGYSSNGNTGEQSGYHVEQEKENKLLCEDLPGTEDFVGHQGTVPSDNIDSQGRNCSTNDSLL
T2 sequence (P13945 whole entry): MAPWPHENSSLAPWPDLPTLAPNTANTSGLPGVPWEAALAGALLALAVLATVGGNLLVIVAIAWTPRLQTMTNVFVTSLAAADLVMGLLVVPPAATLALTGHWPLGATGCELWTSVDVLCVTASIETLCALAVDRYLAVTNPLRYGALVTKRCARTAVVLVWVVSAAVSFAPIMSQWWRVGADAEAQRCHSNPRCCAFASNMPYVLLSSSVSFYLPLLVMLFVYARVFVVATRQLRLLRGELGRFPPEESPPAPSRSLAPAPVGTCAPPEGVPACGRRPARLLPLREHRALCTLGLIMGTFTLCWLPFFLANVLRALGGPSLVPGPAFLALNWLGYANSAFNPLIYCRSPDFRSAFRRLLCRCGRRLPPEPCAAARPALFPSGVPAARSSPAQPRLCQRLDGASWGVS

Regarding `C[C@H](Cc1c[nH]c2c(OCC(=O)O)cccc12)NC[C@H](O)c1cccc(Cl)c1` [AJ 9677, reference compound], the “β1- and/or β2-adrenoceptor-stimulating activities in the conventional evaluation system” value at human β1-receptor (cells, method of Experiment 1 (β1 and β2, THP-1 cells)) is on record as “does not exhibit β1- and/or β2-adrenoceptor-stimulating activities”. In the test with β1-adrenoceptor, the “β1- and/or β2-adrenoceptor-stimulating activities in the evaluation system using tissues” value was “exhibits β1- and/or β2-adrenoceptor-stimulating activities”.
In the case of `C[C@H](Cc1c[nH]c2c(OCC(=O)O)cccc12)NC[C@H](O)c1cccnc1` [Example 2, {3-[(2 R)-2-((2R)-2-Hydroxy-2-pyridin-3-ylethylamino)propyl]-1 H-indol-7-yloxy}acetic acid.2 trifluoroacetate], the EC50 is 0.048 µM at human β3-receptor; over 10 µM at human β2-receptor; over 10 µM on human β1-receptor (THP-1 cells, cAMP production, with ICI-118551, activity not observed up to a maximum concentration, read-out: β1-stimulating activity).
